Experimental data from ChEMBL document CHEMBL5726133, “Dihydropyrrolopyridine inhibitors of ROR-gamma” (2017).

Biological target: T1, Nuclear receptor ROR-gamma (Homo sapiens, UniProt P51449)
T1 sequence (P51449 whole entry): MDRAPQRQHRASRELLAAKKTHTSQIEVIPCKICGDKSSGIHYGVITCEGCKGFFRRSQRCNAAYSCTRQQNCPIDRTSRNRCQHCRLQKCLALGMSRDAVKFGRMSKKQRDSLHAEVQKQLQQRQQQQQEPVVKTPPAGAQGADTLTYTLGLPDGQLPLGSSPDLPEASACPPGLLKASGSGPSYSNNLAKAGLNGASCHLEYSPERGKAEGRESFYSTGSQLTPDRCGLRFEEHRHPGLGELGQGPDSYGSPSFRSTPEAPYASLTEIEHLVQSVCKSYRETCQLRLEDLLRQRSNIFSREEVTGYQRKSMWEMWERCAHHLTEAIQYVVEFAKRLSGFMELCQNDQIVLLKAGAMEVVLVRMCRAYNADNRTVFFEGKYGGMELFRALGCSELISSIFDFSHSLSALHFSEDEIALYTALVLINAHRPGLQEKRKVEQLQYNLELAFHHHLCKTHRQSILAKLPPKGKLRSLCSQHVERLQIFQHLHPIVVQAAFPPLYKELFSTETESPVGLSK
Test: Binding Assay: Compounds of the present invention were tested for ability to bind to RORγ in a cell-free competition assay with commercially available radio-ligand (RL), 25-hydroxy [26,27-3H]-cholesterol (PerkinElmer, Cat. #NET674250UC), for a ligand binding site on a recombinant RORγ Ligand Binding Domain (LBD) protein expressed as a 6×His-Glutathione-S-Transferase (GST) fusion. […] The plate was shaken at 700 rpm for 20 min and incubated for 10 min at rt, after which 40 μL of poly-Lys YSi SPA beads (PerkinElmer, Cat. #RPNQ0010) were added to achieve 50 μg of the beads per well. The plate was incubated on an orbital shaker for 20 min and then for 10 min without agitation at rt. SPA signal for tritium beta radiation was registered on PerkinElmer Microbeta plate reader.

Row | Ki | SMILES
1 | < 100 nM | CCS(=O)(=O)c1ccc(CC(=O)Nc2cnc3c(c2)CN(Cc2ccc(Cl)cc2)[C@H]3C(C)C)cc1
2 | < 100 nM | CCS(=O)(=O)c1ccc(C2(NC(=O)c3cnc4c(c3)CN(Cc3ccc(C(F)(F)F)cc3)[C@H]4C(C)C)CC2)nc1
3 | < 100 nM | CCS(=O)(=O)c1ccc(CNC(=O)c2cnc3c(c2)C(=O)N(Cc2ccc(Cl)cc2)[C@H]3C(C)C)cc1
